In the NIST ThermoML archive (doi:10.1016/j.tca.2019.178383):

Test: xn = mol fraction of the nth substance listed
Settings: for surface tension liquid-gas: Maximal bubble pressure; for mass density: 100 kPa, Liquid, Vibrating tube method

CCn1cc[n+](CCOC)c1.O=S(=O)([O-])C(F)(F)F + CCCO
Settings	mass density [kg/m3]	surface tension liquid-gas [mN/m]
288.15 K, x1 = 0.0987	944.376	23.4
288.15 K, x1 = 0.1999	1043.54	24.2
288.15 K, x1 = 0.2982	1114.64	25
288.15 K, x1 = 0.3994	1171.5	26.2
288.15 K, x1 = 0.499	1215.82	27.7
288.15 K, x1 = 0.5993	1252.38	29.5
288.15 K, x1 = 0.6979	1282.09	31.5
288.15 K, x1 = 0.8009	1308.48	33
288.15 K, x1 = 0.8992	1329.95	34.8
288.15 K, x1 = 1	1348.94	36.3
293.15 K, x1 = 0.0987	940.25	23.1
293.15 K, x1 = 0.1999	1039.33	23.8
293.15 K, x1 = 0.2982	1110.4	24.7
293.15 K, x1 = 0.3994	1167.24	25.9
293.15 K, x1 = 0.499	1211.56	27.4
293.15 K, x1 = 0.5993	1248.12	29.2
293.15 K, x1 = 0.6979	1277.83	31.3
293.15 K, x1 = 0.8009	1304.21	32.7
293.15 K, x1 = 0.8992	1325.68	34.6
293.15 K, x1 = 1	1344.66	36.1
298.15 K, x1 = 0.0987	936.122	22.7
298.15 K, x1 = 0.1999	1035.12	23.5
298.15 K, x1 = 0.2982	1106.16	24.3
298.15 K, x1 = 0.3994	1162.99	25.5
298.15 K, x1 = 0.499	1207.32	27.1
298.15 K, x1 = 0.5993	1243.87	28.9
298.15 K, x1 = 0.6979	1273.58	31
298.15 K, x1 = 0.8009	1299.97	32.5
298.15 K, x1 = 0.8992	1321.43	34.4
298.15 K, x1 = 1	1340.41	35.8
303.15 K, x1 = 0.0987	931.974	22.4
303.15 K, x1 = 0.1999	1030.91	23.1
303.15 K, x1 = 0.2982	1101.93	24
303.15 K, x1 = 0.3994	1158.75	25.1
303.15 K, x1 = 0.499	1203.08	26.7
303.15 K, x1 = 0.5993	1239.64	28.6
303.15 K, x1 = 0.6979	1269.36	30.7
303.15 K, x1 = 0.8009	1295.75	32.2
303.15 K, x1 = 0.8992	1317.21	34.2
303.15 K, x1 = 1	1336.17	35.5
308.15 K, x1 = 0.0987	927.821	22.1
308.15 K, x1 = 0.1999	1026.69	22.7
308.15 K, x1 = 0.2982	1097.7	23.6
308.15 K, x1 = 0.3994	1154.52	24.8
308.15 K, x1 = 0.499	1198.86	26.4
308.15 K, x1 = 0.5993	1235.43	28.3
308.15 K, x1 = 0.6979	1265.15	30.4
308.15 K, x1 = 0.8009	1291.54	32
308.15 K, x1 = 0.8992	1313	33.9
308.15 K, x1 = 1	1331.96	35.3
313.15 K, x1 = 0.0987	923.647	21.7
313.15 K, x1 = 0.1999	1022.48	22.4
313.15 K, x1 = 0.2982	1093.47	23.2
313.15 K, x1 = 0.3994	1150.29	24.5
313.15 K, x1 = 0.499	1194.66	26.1
313.15 K, x1 = 0.5993	1231.23	28
313.15 K, x1 = 0.6979	1260.96	30
313.15 K, x1 = 0.8009	1287.35	31.7
313.15 K, x1 = 0.8992	1308.81	33.7
313.15 K, x1 = 1	1327.77	35.1
318.15 K, x1 = 0.0987	919.45	21.3
318.15 K, x1 = 0.1999	1018.44	22.1
318.15 K, x1 = 0.2982	1089.25	22.8
318.15 K, x1 = 0.3994	1146.1	24.2
318.15 K, x1 = 0.499	1190.46	25.8
318.15 K, x1 = 0.5993	1227.04	27.8
318.15 K, x1 = 0.6979	1256.78	29.7
318.15 K, x1 = 0.8009	1283.18	31.4
318.15 K, x1 = 0.8992	1304.63	33.5
318.15 K, x1 = 1	1323.6	34.9

CCn1cc[n+](CCOC)c1.O=S(=O)([O-])C(F)(F)F + CCO
Settings	mass density [kg/m3]	surface tension liquid-gas [mN/m]
288.15 K, x1 = 0.0996	965.057	23.1
288.15 K, x1 = 0.1999	1071.98	24.2
288.15 K, x1 = 0.2996	1144.79	25.6
288.15 K, x1 = 0.3984	1196.95	27.1
288.15 K, x1 = 0.4991	1237.58	28.7
288.15 K, x1 = 0.6026	1270.25	30.5
288.15 K, x1 = 0.6991	1295.01	31.8
288.15 K, x1 = 0.797	1315.78	33.4
288.15 K, x1 = 0.8995	1333.85	34.9
288.15 K, x1 = 1	1348.94	36.3
293.15 K, x1 = 0.0996	960.722	22.6
293.15 K, x1 = 0.1999	1067.62	23.8
293.15 K, x1 = 0.2996	1140.44	25.2
293.15 K, x1 = 0.3984	1192.61	26.7
293.15 K, x1 = 0.4991	1233.26	28.3
293.15 K, x1 = 0.6026	1265.94	30.1
293.15 K, x1 = 0.6991	1290.72	31.4
293.15 K, x1 = 0.797	1311.49	33.1
293.15 K, x1 = 0.8995	1329.57	34.7
293.15 K, x1 = 1	1344.66	36.1
298.15 K, x1 = 0.0996	956.38	22.1
298.15 K, x1 = 0.1999	1063.27	23.3
298.15 K, x1 = 0.2996	1136.09	24.8
298.15 K, x1 = 0.3984	1188.29	26.3
298.15 K, x1 = 0.4991	1228.95	27.9
298.15 K, x1 = 0.6026	1261.65	29.7
298.15 K, x1 = 0.6991	1286.44	31.1
298.15 K, x1 = 0.797	1307.22	32.8
298.15 K, x1 = 0.8995	1325.31	34.4
298.15 K, x1 = 1	1340.41	35.8
303.15 K, x1 = 0.0996	952.028	21.6
303.15 K, x1 = 0.1999	1058.92	22.8
303.15 K, x1 = 0.2996	1131.76	24.4
303.15 K, x1 = 0.3984	1183.97	25.8
303.15 K, x1 = 0.4991	1224.66	27.5
303.15 K, x1 = 0.6026	1257.38	29.3
303.15 K, x1 = 0.6991	1282.19	30.7
303.15 K, x1 = 0.797	1302.98	32.5
303.15 K, x1 = 0.8995	1321.08	34.1
303.15 K, x1 = 1	1336.17	35.5
308.15 K, x1 = 0.0996	947.665	21.2
308.15 K, x1 = 0.1999	1054.56	22.3
308.15 K, x1 = 0.2996	1127.43	23.9
308.15 K, x1 = 0.3984	1179.66	25.4
308.15 K, x1 = 0.4991	1220.38	27.1
308.15 K, x1 = 0.6026	1253.12	28.9
308.15 K, x1 = 0.6991	1277.95	30.3
308.15 K, x1 = 0.797	1298.75	32
308.15 K, x1 = 0.8995	1316.86	33.8
308.15 K, x1 = 1	1331.96	35.3
313.15 K, x1 = 0.0996	943.285	20.8
313.15 K, x1 = 0.1999	1050.2	21.8
313.15 K, x1 = 0.2996	1123.1	23.5
313.15 K, x1 = 0.3984	1175.37	25
313.15 K, x1 = 0.4991	1216.11	26.7
313.15 K, x1 = 0.6026	1248.89	28.6
313.15 K, x1 = 0.6991	1273.73	30
313.15 K, x1 = 0.797	1294.54	31.8
313.15 K, x1 = 0.8995	1312.66	33.5
313.15 K, x1 = 1	1327.77	35.1
318.15 K, x1 = 0.0996	938.889	20.3
318.15 K, x1 = 0.1999	1045.85	21.4
318.15 K, x1 = 0.2996	1118.78	23
318.15 K, x1 = 0.3984	1171.08	24.6
318.15 K, x1 = 0.4991	1211.87	26.3
318.15 K, x1 = 0.6026	1244.66	28.2
318.15 K, x1 = 0.6991	1269.52	29.6
318.15 K, x1 = 0.797	1290.35	31.5
318.15 K, x1 = 0.8995	1308.47	33.2
318.15 K, x1 = 1	1323.6	34.9
